According to ChEMBL document CHEMBL6121062, “Discovery, Optimization, and Preclinical Pharmacology of EP652, a METTL3 Inhibitor with Efficacy in Liquid and Solid Tumor Models” (J Med Chem, 2025):

Test system: not listed separately
Test: Lipophilicity, logD of compound in 1-octanol/PBS at pH 7.4 incubated for 24 hrs by HPLC analysis
Format: physicochemical
Conditions: not given

| logD at 24 h | SMILES |
| --- | --- |
| 1.88 | COc1cc(-c2cn(Cc3ccc(N4CCC[C@@H](NC5CCCC5)C4)nn3)nn2)c2cn[nH]c2c1 |
| 0.62 | COc1cnnc(-c2cn(C(C)n3ccc(N4CCC[C@@H](NCC5CCC5)C4)cc3=O)nn2)c1 (stereo not given in full) |
| 2.14 | COc1cc(-c2cn(Cc3ccc(N4CCC[C@@H](NC(C)C5CCC5)C4)nn3)nn2)c2cn[nH]c2c1 (stereo not given in full) |
| 1.55 | COc1cncc(-c2cn(Cc3ccc(C4CCCC(NCC5CCC5)C4)nn3)nn2)c1 (stereo not given) |
| 1.7 | COc1cncc(-c2cn(C3(c4ccc(N5CCC[C@@H](NCC6CCC6)C5)nn4)CC3)nn2)c1 |
| 1.89 | COc1cc(-c2cn(Cc3ccc(N4CCC[C@H](NCC5CCC5)C4)nn3)nn2)c2cn[nH]c2c1 |
| 1.06 | COc1cncc(-c2cn(Cn3ncc(N4CCC[C@@H](NCC5CCC5)C4)cc3=O)nn2)c1 |
| 0.97 | CC(n1cc(-c2cncc(C#N)c2)nn1)n1ccc(N2CCC[C@@H](NCC3CCC3)C2)cc1=O (stereo not given in full) |
| 2.61 | COc1cc(-c2cn(Cc3ccc(N4CCC[C@@H](NC(=O)C5CCC5)C4)nn3)nn2)c2cn[nH]c2c1 |
| 1.63 | COc1cc(-c2cn(Cc3ccc(N4CCC[C@@H](NCC5CC5)C4)nn3)nn2)c2cn[nH]c2c1 |
| 0.88 | COc1cncc(-c2cn(Cc3ccc(N4CCC[C@@H](CNC5CCC5)C4)nn3)nn2)c1 |
| 1.12 | COc1cncc(-n2cc(C(C)n3ccc(N4CCC[C@@H](NCC5CCC5)C4)cc3=O)nn2)c1 (stereo not given in full) |
| 1.45 | COc1cncc(-c2nnc(C(C)n3ccc(N4CCC[C@@H](NCC5CCC5)C4)cc3=O)s2)c1 (stereo not given in full) |
| 1.85 | COc1cncc(-c2cn(Cc3ccc(N4CC5(CCCC5NCC5CCC5)C4)nn3)nn2)c1 (stereo not given) |
| 1.69 | COc1ccc(-c2cn(C(C)n3ccc(N4CCC[C@@H](NCC5CCC5)C4)cc3=O)nn2)cn1 (stereo not given in full) |
| 1.46 | COc1cncc(-c2cn(Cc3ccc(N4CCC[C@@H](NCC5CCC5)C4)nc3)nn2)c1 |
| 1.63 | COc1cncc(-c2cc(C(C)n3ccc(N4CCC[C@@H](NCC5CCC5)C4)cc3=O)on2)c1 (stereo not given in full) |
| 1.71 | COc1cc(-c2cn(Cc3ccc(N4CCC[C@@H](NC5CCC5)C4)nn3)nn2)c2cn[nH]c2c1 |
| 0.87 | CC(n1cc(-c2cccnc2)nn1)n1ccc(N2CCC[C@@H](NCC3CCC3)C2)cc1=O (stereo not given in full) |
| 1.52 | COc1cncc(-c2nnn(C(C)n3ccc(N4CCC[C@@H](NCC5CCC5)C4)cc3=O)n2)c1 (stereo not given in full) |
| 3.06 | COc1cc(-c2cn(Cc3ccc(N4CCC[C@@H](NC5CC56CCC6)C4)nn3)nn2)c2cn[nH]c2c1 (stereo not given in full) |

Test system: not listed separately
Test: Unbound clearance in Sprague-Dawley rat at 1 mg/kg/day, iv measured for 24 hrs by LC-MS/MS analysis
Format: ADME, organism-based
Conditions: in vivo

| CL free [mL/min/kg] | SMILES |
| --- | --- |
| 480 | COc1cncc(-c2nnc(C(C)n3ccc(N4CCC[C@@H](NCC5CCC5)C4)cc3=O)s2)c1 (stereo not given in full) |

Test system: Kasumi 1
Test: Antiproliferative activity against human Kasumi 1 cells assessed as inhibition of cell viability incubated for 72 hrs by ATPlite assay
Format: functional, cell-based
Conditions: Kasumi 1, 72 h

| SMILES | IC50 [nM] |
| --- | --- |
| COc1cc(-c2cn(Cc3ccc(N4CCC[C@@H](NC5CCCC5)C4)nn3)nn2)c2cn[nH]c2c1 | 3430 |
| COc1cnnc(-c2cn(C(C)n3ccc(N4CCC[C@@H](NCC5CCC5)C4)cc3=O)nn2)c1 (stereo not given in full) | 5420 |
| COc1cc(-c2cn(Cc3ccc(N4CCC[C@@H](NC(C)C5CCC5)C4)nn3)nn2)c2cn[nH]c2c1 (stereo not given in full) | 10100 |
| COc1cncc(-c2cn(Cc3ccc(C4CCCC(NCC5CCC5)C4)nn3)nn2)c1 (stereo not given) | > 30000 |
| COc1cncc(-c2cn(C3(c4ccc(N5CCC[C@@H](NCC6CCC6)C5)nn4)CC3)nn2)c1 | 9880 |
| COc1cc(-c2cn(Cc3ccc(N4CCC[C@H](NCC5CCC5)C4)nn3)nn2)c2cn[nH]c2c1 | 3400 |
| COc1cncc(-c2cn(Cn3ncc(N4CCC[C@@H](NCC5CCC5)C4)cc3=O)nn2)c1 | 11800 |
| CC(n1cc(-c2cncc(C#N)c2)nn1)n1ccc(N2CCC[C@@H](NCC3CCC3)C2)cc1=O (stereo not given in full) | > 30000 |
| COc1cc(-c2cn(Cc3ccc(N4CCC[C@@H](NC(=O)C5CCC5)C4)nn3)nn2)c2cn[nH]c2c1 | > 30000 |
| COc1cc(-c2cn(Cc3ccc(N4CCC[C@@H](NCC5CC5)C4)nn3)nn2)c2cn[nH]c2c1 | 1050 |
| COc1cncc(-c2cn(Cc3ccc(N4CCC[C@@H](CNC5CCC5)C4)nn3)nn2)c1 | > 30000 |
| COc1cncc(-n2cc(C(C)n3ccc(N4CCC[C@@H](NCC5CCC5)C4)cc3=O)nn2)c1 (stereo not given in full) | 1930 |
| COc1cncc(-c2nnc(C(C)n3ccc(N4CCC[C@@H](NCC5CCC5)C4)cc3=O)s2)c1 (stereo not given in full) | 506 |
| COc1cncc(-c2cn(Cc3ccc(N4CC5(CCCC5NCC5CCC5)C4)nn3)nn2)c1 (stereo not given) | > 30000 |
| COc1ccc(-c2cn(C(C)n3ccc(N4CCC[C@@H](NCC5CCC5)C4)cc3=O)nn2)cn1 (stereo not given in full) | > 30000 |
| COc1cncc(-c2cn(Cc3ccc(N4CCC[C@@H](NCC5CCC5)C4)nc3)nn2)c1 | 1200 |
| COc1cncc(-c2cc(C(C)n3ccc(N4CCC[C@@H](NCC5CCC5)C4)cc3=O)on2)c1 (stereo not given in full) | 1840 |
| COc1cc(-c2cn(Cc3ccc(N4CCC[C@@H](NC5CCC5)C4)nn3)nn2)c2cn[nH]c2c1 | 2740 |
| CC(n1cc(-c2cccnc2)nn1)n1ccc(N2CCC[C@@H](NCC3CCC3)C2)cc1=O (stereo not given in full) | 8120 |
| COc1cncc(-c2nnn(C(C)n3ccc(N4CCC[C@@H](NCC5CCC5)C4)cc3=O)n2)c1 (stereo not given in full) | 5500 |
| COc1cc(-c2cn(Cc3ccc(N4CCC[C@@H](NC5CC56CCC6)C4)nn3)nn2)c2cn[nH]c2c1 (stereo not given in full) | 1100 |

Biological target: METTL3/METTL14 (Homo sapiens, UniProt Q86U44)
Test: Displacement of [3H]-SAM from METTL3/METTL14 (unknown origin) using 5'biotinylated-UACACUCGAUCUGGACUAAAGGUGCUC-3' RNA as substrate preincubated for 10 mins followed by substrate/[3H]-SAM addition measured after 90 mins by SPA
Format: protein-complex assay
Conditions: not given

Chain of METTL3/METTL14 (Q86U44 whole entry): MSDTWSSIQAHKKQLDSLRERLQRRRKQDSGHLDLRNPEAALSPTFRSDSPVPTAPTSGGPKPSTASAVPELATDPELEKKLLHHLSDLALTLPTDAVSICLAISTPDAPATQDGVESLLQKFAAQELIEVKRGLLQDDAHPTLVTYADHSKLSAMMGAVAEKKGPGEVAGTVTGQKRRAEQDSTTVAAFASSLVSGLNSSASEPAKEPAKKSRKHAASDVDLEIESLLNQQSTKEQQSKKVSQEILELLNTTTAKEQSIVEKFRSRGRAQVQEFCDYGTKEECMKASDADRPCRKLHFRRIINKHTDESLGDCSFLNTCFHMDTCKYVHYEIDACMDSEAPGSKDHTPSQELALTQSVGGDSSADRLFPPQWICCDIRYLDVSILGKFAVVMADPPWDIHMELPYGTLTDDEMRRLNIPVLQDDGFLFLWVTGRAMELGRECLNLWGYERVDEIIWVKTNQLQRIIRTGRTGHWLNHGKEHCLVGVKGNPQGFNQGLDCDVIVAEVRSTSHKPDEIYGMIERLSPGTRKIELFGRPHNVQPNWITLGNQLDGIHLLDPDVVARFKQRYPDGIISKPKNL
Chain of METTL3/METTL14 (Q9HCE5 whole entry, further chain): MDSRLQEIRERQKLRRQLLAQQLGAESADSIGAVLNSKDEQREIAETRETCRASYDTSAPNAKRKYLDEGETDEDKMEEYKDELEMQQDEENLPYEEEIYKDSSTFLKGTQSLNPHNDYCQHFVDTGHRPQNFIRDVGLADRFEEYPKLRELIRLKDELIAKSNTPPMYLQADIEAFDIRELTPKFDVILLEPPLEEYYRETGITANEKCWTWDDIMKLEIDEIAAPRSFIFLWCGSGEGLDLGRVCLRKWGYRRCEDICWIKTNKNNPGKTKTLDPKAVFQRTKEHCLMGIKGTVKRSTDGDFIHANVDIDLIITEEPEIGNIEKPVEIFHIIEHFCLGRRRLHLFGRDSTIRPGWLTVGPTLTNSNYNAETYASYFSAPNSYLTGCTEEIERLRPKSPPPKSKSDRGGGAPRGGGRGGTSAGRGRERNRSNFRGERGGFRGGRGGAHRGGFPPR

| IC50 [nM] | SMILES |
| --- | --- |
| 5 | COc1cnnc(-c2cn(C(C)n3ccc(N4CCC[C@@H](NCC5CCC5)C4)cc3=O)nn2)c1 (stereo not given in full) |
| 215 | COc1cncc(-c2cn(Cc3ccc(C4CCCC(NCC5CCC5)C4)nn3)nn2)c1 (stereo not given) |
| 25 | COc1cncc(-c2cn(C3(c4ccc(N5CCC[C@@H](NCC6CCC6)C5)nn4)CC3)nn2)c1 |
| 24 | COc1cc(-c2cn(Cc3ccc(N4CCC[C@H](NCC5CCC5)C4)nn3)nn2)c2cn[nH]c2c1 |
| 26 | COc1cncc(-c2cn(Cn3ncc(N4CCC[C@@H](NCC5CCC5)C4)cc3=O)nn2)c1 |
| 2 | COc1cc(-c2cn(Cc3ccc(N4CCC[C@@H](NCC5CC5)C4)nn3)nn2)c2cn[nH]c2c1 |
| 124 | COc1cncc(-c2cn(Cc3ccc(N4CCC[C@@H](CNC5CCC5)C4)nn3)nn2)c1 |
| 7 | COc1cncc(-n2cc(C(C)n3ccc(N4CCC[C@@H](NCC5CCC5)C4)cc3=O)nn2)c1 (stereo not given in full) |
| 3 | COc1cncc(-c2nnc(C(C)n3ccc(N4CCC[C@@H](NCC5CCC5)C4)cc3=O)s2)c1 (stereo not given in full) |
| 205 | COc1cncc(-c2cn(Cc3ccc(N4CC5(CCCC5NCC5CCC5)C4)nn3)nn2)c1 (stereo not given) |
| > 30000 | COc1ccc(-c2cn(C(C)n3ccc(N4CCC[C@@H](NCC5CCC5)C4)cc3=O)nn2)cn1 (stereo not given in full) |
| 7 | COc1cncc(-c2cn(Cc3ccc(N4CCC[C@@H](NCC5CCC5)C4)nc3)nn2)c1 |
| 7 | COc1cncc(-c2cc(C(C)n3ccc(N4CCC[C@@H](NCC5CCC5)C4)cc3=O)on2)c1 (stereo not given in full) |
| 5 | COc1cc(-c2cn(Cc3ccc(N4CCC[C@@H](NC5CCC5)C4)nn3)nn2)c2cn[nH]c2c1 |
| 39 | CC(n1cc(-c2cccnc2)nn1)n1ccc(N2CCC[C@@H](NCC3CCC3)C2)cc1=O (stereo not given in full) |
| 13 | COc1cncc(-c2nnn(C(C)n3ccc(N4CCC[C@@H](NCC5CCC5)C4)cc3=O)n2)c1 (stereo not given in full) |
| 4 | COc1cc(-c2cn(Cc3ccc(N4CCC[C@@H](NC5CC56CCC6)C4)nn3)nn2)c2cn[nH]c2c1 (stereo not given in full) |
